Experimental findings from patent US9216173B2, “2-Pyridyl carboxamide-containing spleen tyrosine kinase (SYK) inhibitors” (Merck Sharp & Dohme Corp., priority 2011, dated 2015) are described below.

The IC50 is the concentration at which inhibition is half-maximal.

The structures appear in SMILES notation. A value given as a limit tells only on which side of the number the result lay.

The first assay has as its target T1, recombinant human GST-SYK (Homo sapiens, UniProt P43405).
T1 construct: purchased Carna Biosciences 08-176
The assay is described as follows: Homogeneous Time-Resolved Fluorescence (HTRF) assay for the recombinant human Syk enzyme. The format is biochemical. Particulars: GST-hSYK 5 pM, ATP 25 μM, 10-dose titration 10 μM to 0.508 nM; read-out: IC50. In outline: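 GST-hSYK fusion phosphorylates a peptide for 45 min at room temperature. Quenched with EDTA buffer containing 2 nM Eu-anti-phosphotyrosine antibody and 70 nM SA-APC. HTRF signal read after 30 min.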
A general note: Time-resolved FRET reads energy transfer from a long-lived donor to a nearby acceptor.
For the compound `Cc1cc(C)nc(Nc2cc(N)cnc2C(N)=O)c1` [Example 9, 5-amino-3-[(4,6-dimethylpyridin-2-yl)amino]pyridine-2-carboxamide], the IC50 stood at 2900 nM.

The same assay, now with this note: GST-hSYK 5 pM, ATP 25 μM, 10-dose titration 10 μM to 0.508 nM; read-out: rhSYK Activity (IC50 rating).
`COc1ncc(-c2ccc(Nc3cc(N[C@@H]4CCCC[C@@H]4N)cnc3C(N)=O)nc2C)cn1` [Example 3.24, 5-{[(1R,2S)-2-aminocyclohexyl]amino}-3-{[5-(2-methoxypyrimidin-5-yl)-6-methylpyridin-2-yl]amino}pyridine-2-carboxamide]: the IC50 was below 10 nM.
On the same count and under the same terms, to `Cc1nc(Nc2cc(N[C@@H]3CCCC[C@@H]3N)cnc2C(N)=O)ccc1-c1cncnc1` [Example 3.25, 5-{[(1R,2S)-2-aminocyclohexyl]amino}-3-[(6-methyl-5-pyrimidin-5-ylpyridin-2-yl)amino]pyridine-2-carboxamide] belongs below 10 nM.
On the same count and under the same terms, to `COc1ncccc1-c1ccc(Nc2cc(N[C@@H]3CCCC[C@@H]3N)cnc2C(N)=O)nc1C` [Example 3.26, 5-{[(1R,2S)-2-aminocyclohexyl]amino}-3-[(2′-methoxy-2-methyl-3,3′-bipyridin-6-yl)amino]pyridine-2-carboxamide] belongs below 10 nM.
Same read-out and setting: to `Cc1nc(Nc2cc(N[C@@H]3CCCC[C@@H]3N)cnc2C(N)=O)ccc1-c1ccc2cccnc2c1` [Example 3.27, 5-{[(1R,2S)-2-aminocyclohexyl]amino}-3-[(6-methyl-5-quinolin-7-ylpyridin-2-yl)amino]pyridine-2-carboxamide] belongs below 10 nM.
For `Cc1cccc(-c2ccc(Nc3cc(N[C@@H]4CCCC[C@@H]4N)cnc3C(N)=O)nc2C)c1O` [Example 3.28, 5-{[(1R,2S)-2-aminocyclohexyl]amino}-3-{[5-(2-hydroxy-3-methylphenyl)-6-methylpyridin-2-yl]amino}pyridine-2-carboxamide], the IC50 lay in the range of 10 to 100 nM.
Consider `Cc1nc(Nc2cc(N[C@@H]3CCCC[C@@H]3N)cnc2C(N)=O)ccc1-c1ccc(-c2nccn2C)cc1` [Example 3.29, 5-{[(1R,2S)-2-aminocyclohexyl]amino}-3-({6-methyl-5-[4-(1-methyl-1H-imidazol-2-yl)phenyl]pyridin-2-yl}amino)pyridine-2-carboxamide], for which the IC50 is below 10 nM.
The same measure, in the same setting: next, `Cc1nc(Nc2cc(N[C@@H]3CCCC[C@@H]3N)cnc2C(N)=O)ccc1-c1ccc(-c2ncco2)cc1` [Example 3.30, 5-{[(1R,2S)-2-aminocyclohexyl]amino}-3-({6-methyl-5-[4-(1,3-oxazol-2-yl)phenyl]pyridin-2-yl}amino)pyridine-2-carboxamide]: below 10 nM; `Cc1nc(Nc2cc(N[C@@H]3CCCC[C@@H]3N)cnc2C(N)=O)ccc1-c1ccc2c(c1)n(C)c(=O)n2C` [Example 3.31, 5-{[(1R,2S)-2-aminocyclohexyl]amino}-3-{[5-(1,3-dimethyl-2-oxo-2,3-dihydro-1H-benzimidazol-5-yl)-6-methylpyridin-2-yl]amino}pyridine-2-carboxamide]: below 10 nM; `Cc1nc(Nc2cc(N[C@@H]3CCCC[C@@H]3N)cnc2C(N)=O)ccc1-c1ccc(C)c2ncccc12` [Example 3.32, 5-{[(1R,2S)-2-aminocyclohexyl]amino}-3-{[6-methyl-5-(8-methylquinolin-5-yl)pyridin-2-yl]amino}pyridine-2-carboxamide]: below 10 nM.
In the case of `Cc1cc(-c2ccccc2)cc(Nc2cc(N[C@@H]3CCCC[C@@H]3N)cnc2C(N)=O)n1` [Example 4.1, 5-{[(1R,2S)-2-aminocyclohexyl]amino}-3-[(6-methyl-4-phenylpyridin-2-yl)amino]pyridine-2-carboxamide], the IC50 was below 10 nM.
Still for that read-out and setting: next, `Cc1cc(-c2cccnc2)cc(Nc2cc(N[C@@H]3CCCC[C@@H]3N)cnc2C(N)=O)n1` [Example 4.2, 5-{[(1R,2S)-2-aminocyclohexyl]amino}-3-[(6′-methyl-3,4′-bipyridin-2′-yl)amino]pyridine-2-carboxamide]: below 10 nM.
As to `Cc1cc(-c2cnn(C)c2)cc(Nc2cc(N[C@@H]3CCCC[C@@H]3N)cnc2C(N)=O)n1` [Example 4.3, 5-{[(1R,2S)-2-aminocyclohexyl]amino}-3-{[6-methyl-4-(1-methyl-1H-pyrazol-4-yl)pyridin-2-yl]amino}pyridine-2-carboxamide], the IC50 is below 10 nM.
Still for that read-out and setting: next, `Cc1cc(-c2ccnn2C)cc(Nc2cc(N[C@@H]3CCCC[C@@H]3N)cnc2C(N)=O)n1` [Example 4.4, 5-{[(1R,2S)-2-aminocyclohexyl]amino}-3-{[6-methyl-4-(1-methyl-1H-pyrazol-5-yl)pyridin-2-yl]amino}pyridine-2-carboxamide]: below 10 nM.
Take `Cc1nc(Nc2cc(N[C@@H]3CCCC[C@@H]3N)cnc2C(N)=O)ccc1OC(C)C` [Example 5.1, 5-{[(1R,1S)-2-aminocyclohexyl]amino}-3-{[6-methyl-5-(propan-2-yloxy)pyridin-2-yl]amino}pyridine-2-carboxamide]: the IC50 is below 10 nM.
`Cc1cc(OC(C)C)cc(Nc2cc(N[C@@H]3CCCC[C@@H]3N)cnc2C(N)=O)n1` [Example 5.2, 5-{[(1R,2S)-2-aminocyclohexyl]amino}-3-{[6-methyl-4-(1-methylethoxy)pyridin-2-yl]amino}pyridine-2-carboxamide]: the IC50 is below 10 nM.
Same read-out and setting: next, `Cc1cc(OCc2ccccc2)cc(Nc2cc(N[C@@H]3CCCC[C@@H]3N)cnc2C(N)=O)n1` [Example 5.3, 5-{[(1R,2S)-2-aminocyclohexyl]amino}-3-{[4-(benzyloxy)-6-methylpyridin-2-yl]amino}pyridine-2-carboxamide]: below 10 nM; `CC(=O)NCC(N)CNc1cnc(C(N)=O)c(Nc2cc(C)cc(C)n2)c1` (stereo not drawn) [Example 6.1, 5-{[3-(acetylamino)-2-aminopropyl]amino}-3-[(4,6-dimethylpyridin-2-yl)amino]pyridine-2-carboxamide]: 10 to 100 nM.
Still for that read-out and setting: next, `Cc1nc(Nc2cc(N[C@@H]3CCCC[C@@H]3N)cnc2C(N)=O)ccc1C(N)=O` [Example 7, 5-{[(1R,2S)-2-aminocyclohexyl]amino}-3-[(5-carbamoyl-6-methylpyridin-2-yl)amino]pyridine-2-carboxamide]: below 10 nM; `NC(=O)c1ncc(N[C@@H]2CCCC[C@@H]2N)cc1Nc1cccc(CN2CCNCC2)n1` [Example 8, 5-{[(1R,2S)-2-aminocyclohexyl]amino}-3-{[6-(piperazin-1-ylmethyl)pyridin-2-yl]amino}pyridine-2-carboxamide]: 100 to 1000 nM.
Same read-out and setting: next, `Cc1cc(C)nc(Nc2cc(N)cnc2C(N)=O)c1` [Example 9, 5-amino-3-[(4,6-dimethylpyridin-2-yl)amino]pyridine-2-carboxamide]: 1000 to 10000 nM; `Cc1cc(C)nc(Nc2cc(NC(=O)CN)cnc2C(N)=O)c1` [Example 10, 3-[(4,6-dimethylpyridin-2-yl)amino]-5-(glycylamino)pyridine-2-carboxamide]: 100 to 1000 nM.
Regarding `Cc1cc(O)cc(Nc2cc(N[C@@H]3CCCC[C@@H]3N)cnc2C(N)=O)n1` [Example 11, 5-{[(1R,2S)-2-aminocyclohexyl]amino}-3-[(4-hydroxy-6-methylpyridin-2-yl)amino]pyridine-2-carboxamide], the IC50 lay within 10 to 100 nM.
Still for that read-out and setting: to `Cc1cc(C(=O)O)cc(Nc2cc(N[C@@H]3CCCC[C@@H]3N)cnc2C(N)=O)n1` [Example 12, 2-[(5-{[(1R,2S)-2-aminocyclohexyl]amino}-2-carbamoylpyridin-3-yl)amino]-6-methylpyridine-4-carboxylic acid] belongs 10 to 100 nM.
